Experimental data reported in patent US4118561A, “7-(Substituted)-7H-pyrrolo[3,2-f]quinazoline-1,3-diamines” (priority 1977, dated 1978).
In brackets after ≈: the same amount, converted by molar mass. Like-named read-outs stand apart in the source and are kept apart here.

What was measured:
S. aureus Smith = test: In vitro antibacterial activity (MIC), S. aureus Smith; settings: Staphylococcus aureus, 18 h
S. paratyphi 11737 = test: In vitro antibacterial activity (MIC), S. paratyphi 11737; format: cell-based; settings: Salmonella enterica, 18 h
K. pneumoniae 10031 = test: In vitro antibacterial activity (MIC), K. pneumoniae 10031; settings: Klebsiella pneumoniae, 10031, 18 h
P. vulgaris 6896 = test: In vitro antibacterial activity (MIC), P. vulgaris 6896; settings: Proteus vulgaris, 6896, 18 h
N. catarrhalis 8193 = test: In vitro antibacterial activity (MIC), N. catarrhalis 8193; settings: 18 h
[1] = test system: Plasmodium berghei KBG 173; test: Antimalarial blood schizonticidal test in mice; format: in vivo, Plasmodium berghei (infected ICR/HA Swiss mice); parameters: ΔMST (increase in mean survival time): unit: days; settings: s.c.; for ED100 / minimal effective dose: Plasmodium berghei, sc, single dose; for ED100: read-out: Lowest Dose Curing All Mice; for minimal effective dose: read-out: Min. Curing Dose; for Cure/Treat at Min. Curing Dose: at the Min. Curing Dose
Excerpt: (§1) In addition, the invention provides compounds which have antimalarial activity in vivo as evidenced by a standard blood schizonticidal test in mice infected with Plasmodium berghei KBG 173.
(§2) Utilizing young ICR/HA Swiss mice and a standard inoculum of Plasmodium berghei KBG 173, it is possible to produce a uniform disease fatal to 100% of untreated animals within 6 to 8 days with a mean survival time of 6.2 days. Test animals weigh from 18 to 22 grams but weight variations in any given experimental or control group are confined to 2-3 grams. All animals in any given test are approximately of the same age. Animals on test are housed in metal-topped plastic cages, given a standard laboratory diet and water ad libitum.
(§3) Test animals receive an intraperitoneal injection of 0.5 ml. of 1:100 dilution of heparinized heart's blood with a minimum of 90% parasitized cells (4 × 10^7 cells), drawn from donor mice infected one week earlier with Plasmodium berghei. The donor strain is maintained by weekly passages in separate groups of mice inoculated with a 0.5 ml. of 1:500 dilution of heparinized heart's blood.
(§4) Test compounds are administered after dissolution or suspension in peanut oil. A single dose is given subcutaneously 72 hours after the mice are infected with Plasmodium berghei. At this time a 10-15 percent parasitemia has developed; the disease is well established but has not produced sufficient debility to alter the response of the host to toxic effects of the drug on test. Since treatment is withheld for three days to permit the infection to become well established and death occurs in untreated controls within 6-8 days, it is felt that this system presents a candidate compound with the maximum challenge. In order to check factors such as changes in the infectivity of Plasmodium berghei or in the susceptibility of the host or to detect technical errors, a group of infected animals treated with pyrimethamine at dose levels producing definite increases in survival time is included in a positive control in every experiment.
(§5) In each experiment test compounds are administered in graded dosages. […] However, if an active drug is toxic for the host, its toxicity may become a limiting factor; continued increases in dose levels also increase the toxic effects and may result in the diminution of survival times. Deaths prior to the sixth day, when untreated controls begin to die, are regarded as nonparasitic and become the basis for toxicity evaluations. […] In calculating mean survival time, toxic deaths and 60-day survivors are not included.
(§6) Compounds are considered active which produce a cure in at least one test animal or which produce significant increases in mean survival times of the treated animals as compared with the mean survival times of untreated controls, provided that no drug related deaths (toxicity) are noted at the active dose.

[2] = Antimalarial blood schizonticidal test in mice; format: in vivo, Plasmodium berghei (infected ICR/HA Swiss mice); parameters: ΔMST (increase in mean survival time): unit: days; settings: mouse, in vivo, sc, single dose, read-out: Highest Non-Lethal Dose
Excerpt: as §1, §2, §3, §4, §5, §6

E. coli 9637 = test: In vitro antibacterial activity (MIC), E. coli 9637; settings: Escherichia coli, 9637, 18 h
S. aureus 53-180 = test: In vitro antibacterial activity (MIC), S. aureus 53-180; settings: Staphylococcus aureus, 53180, 18 h
[3] = infected mice, highest dose with no deaths for any reason
[4] = 336 h, alive on day 14 considered cured, no 60-day data
[5] = alive on day 14 considered cured
[6] = alive on day 14 considered cured, no 60-day data

Structure (SMILES)	MIC (S. aureus Smith) [µg/mL]	MIC (S. paratyphi 11737) [µg/mL]	MIC (K. pneumoniae 10031) [µg/mL]	MIC (P. vulgaris 6896) [µg/mL]	MIC (N. catarrhalis 8193) [µg/mL]	ED100 ([1]; 1440 h, 60-day survivors) [mg/kg]	minimal effective dose ([1]; 1440 h, 60-day survivors) [mg/kg]	Cure/Treat at Min. Curing Dose ([1]; 60-day survivors)	ΔMST (increase in mean survival time) ([1]; dose 5 mg. per kg.)	MTD [2, 3] [mg/kg]	MIC (E. coli 9637) [µg/mL]	MIC (S. aureus 53-180) [µg/mL]	also measured
Nc1nc(N)c2c(ccc3c2ccn3Cc2ccccc2F)n1 [Example 3]	0.488 (≈ 1.59 µM)	0.976 (≈ 3.18 µM)	0.122 (≈ 0.397 µM)	0.976 (≈ 3.18 µM)	0.0152 (≈ 0.0495 µM)	80	10	3/5	9.8	80	0.488 (≈ 1.59 µM)	0.244 (≈ 0.794 µM)	
Nc1nc(N)c2c(ccc3c2ccn3Cc2cccc(F)c2)n1 [Example 4]	0.244 (≈ 0.794 µM)	0.488 (≈ 1.59 µM)	0.061 (≈ 0.198 µM)	0.488 (≈ 1.59 µM)	< 0.0009	40	10	1/5		40	0.244 (≈ 0.794 µM)	0.031 (≈ 0.101 µM)	ΔMST (increase in mean survival time) ([1]; dose 10 mg. per kg.): 8.3
Nc1nc(N)c2c(ccc3c2ccn3Cc2ccccc2Cl)n1 [Example 6]	0.976 (≈ 3.01 µM)	1.95 (≈ 6.02 µM)	0.976 (≈ 3.01 µM)	7.81 (≈ 24.1 µM)	0.061 (≈ 0.188 µM)	20	20	5/5	8.3	160	0.976 (≈ 3.01 µM)	0.976 (≈ 3.01 µM)	
Nc1nc(N)c2c(ccc3c2ccn3Cc2cccc(Cl)c2)n1 [Example 7]	1.95 (≈ 6.02 µM)	31.3 (≈ 96.7 µM)	0.976 (≈ 3.01 µM)	31.3 (≈ 96.7 µM)	0.244 (≈ 0.754 µM)	10	2.5	2/5		160	7.81 (≈ 24.1 µM)	0.976 (≈ 3.01 µM)	ΔMST (increase in mean survival time) ([1]; dose 1.25 mg. per kg.): 7.7
Nc1nc(N)c2c(ccc3c2ccn3Cc2ccc(Cl)cc2)n1 [Example 8]	0.976 (≈ 3.01 µM)	0.976 (≈ 3.01 µM)	0.122 (≈ 0.377 µM)	0.976 (≈ 3.01 µM)	0.0038 (≈ 0.0117 µM)	20	10	2/5	8.1	40	0.976 (≈ 3.01 µM)	0.244 (≈ 0.754 µM)	
Nc1nc(N)c2c(ccc3c2ccn3Cc2c(Cl)cccc2Cl)n1 [Example 9]	250 (≈ 698 µM)	> 250	15.6 (≈ 43.5 µM)	> 250	0.488 (≈ 1.36 µM)						> 250	250 (≈ 698 µM)	ED100 [1, 4]: 40 mg/kg; minimal effective dose [1, 4]: 5 mg/kg; Cure/Treat at Min. Curing Dose [1, 5]: 1/5; MTD [2, 6]: 160 mg/kg
Nc1nc(N)c2c(ccc3c2ccn3Cc2ccc(Cl)c(Cl)c2)n1 [Example 10]	0.976 (≈ 2.72 µM)	31.3 (≈ 87.4 µM)	0.488 (≈ 1.36 µM)	31.3 (≈ 87.4 µM)	0.061 (≈ 0.17 µM)	10	2.5	2/5		40	3.9 (≈ 10.9 µM)	0.488 (≈ 1.36 µM)	ΔMST (increase in mean survival time) ([1]; dose 2.5 mg. per kg.): 10.2
Nc1nc(N)c2c(ccc3c2ccn3Cc2ccccc2C(F)(F)F)n1 [Example 11]	0.488 (≈ 1.37 µM)	3.9 (≈ 10.9 µM)	0.122 (≈ 0.341 µM)	62.5 (≈ 175 µM)	< 0.0009	10	1.25	1/5		40	1.95 (≈ 5.46 µM)	0.244 (≈ 0.683 µM)	ΔMST (increase in mean survival time) ([1]; dose 0.63 mg. per kg.): 7.3
N#Cc1ccccc1Cn1ccc2c3c(N)nc(N)nc3ccc21 [Example 14]	0.244 (≈ 0.776 µM)	0.488 (≈ 1.55 µM)	0.122 (≈ 0.388 µM)	1.95 (≈ 6.2 µM)	0.061 (≈ 0.194 µM)	40	10	1/5		160	0.244 (≈ 0.776 µM)	0.244 (≈ 0.776 µM)	ΔMST (increase in mean survival time) ([1]; dose 10 mg. per kg.): 8.9
Cc1cccc(Cn2ccc3c4c(N)nc(N)nc4ccc32)c1 [Example 20]	0.976 (≈ 3.22 µM)	1.95 (≈ 6.43 µM)	1.95 (≈ 6.43 µM)	1.95 (≈ 6.43 µM)	0.031 (≈ 0.102 µM)	20	5	4/5	6.9	320	0.488 (≈ 1.61 µM)	0.488 (≈ 1.61 µM)	
Cc1ccc(Cn2ccc3c4c(N)nc(N)nc4ccc32)c(C)c1 [Example 22]	0.244 (≈ 0.769 µM)	3.4 (≈ 10.7 µM)	0.244 (≈ 0.769 µM)	7.81 (≈ 24.6 µM)	0.0152 (≈ 0.0479 µM)						0.976 (≈ 3.08 µM)	0.244 (≈ 0.769 µM)	ED100 [1, 4]: 5 mg/kg; minimal effective dose [1, 4]: 5 mg/kg; Cure/Treat at Min. Curing Dose [1, 5]: 5/5; ΔMST (increase in mean survival time) ([1]; dose 2.5 mg. per kg., alive on day 14 considered cured, no 60-day data): 7.6; MTD [2, 6]: 80 mg/kg
Cc1cc(C)c(Cn2ccc3c4c(N)nc(N)nc4ccc32)c(C)c1 [Example 27]	250 (≈ 754 µM)	> 250	31.3 (≈ 94.4 µM)	> 250	0.244 (≈ 0.736 µM)	40	5	3/5		80	> 250	250 (≈ 754 µM)	ΔMST (increase in mean survival time) ([1]; dose 2.5 mg. per kg.): 7.3
CC(C)c1ccc(Cn2ccc3c4c(N)nc(N)nc4ccc32)cc1 [Example 29]	1.95 (≈ 5.88 µM)	62.5 (≈ 189 µM)	0.488 (≈ 1.47 µM)	62.5 (≈ 189 µM)	0.244 (≈ 0.736 µM)	20	10	1/5		20	7.81 (≈ 23.6 µM)	0.976 (≈ 2.94 µM)	ΔMST (increase in mean survival time) ([1]; dose 10 mg. per kg.): 10.2
CSc1ccc(Cn2ccc3c4c(N)nc(N)nc4ccc32)cc1 [Example 31]	0.976 (≈ 2.91 µM)	3.9 (≈ 11.6 µM)	0.122 (≈ 0.364 µM)	31.3 (≈ 93.3 µM)	0.0152 (≈ 0.0453 µM)						0.488 (≈ 1.45 µM)	0.488 (≈ 1.45 µM)	ED100 [1, 4]: 20 mg/kg; minimal effective dose [1, 4]: 2.5 mg/kg; Cure/Treat at Min. Curing Dose [1, 5]: 4/5; ΔMST (increase in mean survival time) ([1]; dose 1.25 mg. per kg., alive on day 14 considered cured, no 60-day data): 6.2; MTD [2, 6]: 40 mg/kg
COc1ccccc1Cn1ccc2c3c(N)nc(N)nc3ccc21 [Example 32]	0.976 (≈ 3.06 µM)	7.81 (≈ 24.5 µM)	0.244 (≈ 0.764 µM)	3.9 (≈ 12.2 µM)	0.061 (≈ 0.191 µM)	40	10	3/5		160	1.95 (≈ 6.11 µM)	0.976 (≈ 3.06 µM)	ΔMST (increase in mean survival time) ([1]; dose 10 mg. per kg.): 10.5
COc1cccc(Cn2ccc3c4c(N)nc(N)nc4ccc32)c1 [Example 33]	3.9 (≈ 12.2 µM)	7.81 (≈ 24.5 µM)	0.488 (≈ 1.53 µM)	7.81 (≈ 24.5 µM)	0.976 (≈ 3.06 µM)	40	10	1/5	7.6	40	0.488 (≈ 1.53 µM)	0.976 (≈ 3.06 µM)	
